Test results reported in the Kinase Knowledgebase extract (Sharma et al. 2016).
pIC50: −log10 of the molar value.

What follows are compounds tested against PIK3CG (human) (UniProt P48736) (assay: Inhibition of PIK3CG Kinase Activity).
PIK3CG (human), sequence (P48736 whole entry, looked up): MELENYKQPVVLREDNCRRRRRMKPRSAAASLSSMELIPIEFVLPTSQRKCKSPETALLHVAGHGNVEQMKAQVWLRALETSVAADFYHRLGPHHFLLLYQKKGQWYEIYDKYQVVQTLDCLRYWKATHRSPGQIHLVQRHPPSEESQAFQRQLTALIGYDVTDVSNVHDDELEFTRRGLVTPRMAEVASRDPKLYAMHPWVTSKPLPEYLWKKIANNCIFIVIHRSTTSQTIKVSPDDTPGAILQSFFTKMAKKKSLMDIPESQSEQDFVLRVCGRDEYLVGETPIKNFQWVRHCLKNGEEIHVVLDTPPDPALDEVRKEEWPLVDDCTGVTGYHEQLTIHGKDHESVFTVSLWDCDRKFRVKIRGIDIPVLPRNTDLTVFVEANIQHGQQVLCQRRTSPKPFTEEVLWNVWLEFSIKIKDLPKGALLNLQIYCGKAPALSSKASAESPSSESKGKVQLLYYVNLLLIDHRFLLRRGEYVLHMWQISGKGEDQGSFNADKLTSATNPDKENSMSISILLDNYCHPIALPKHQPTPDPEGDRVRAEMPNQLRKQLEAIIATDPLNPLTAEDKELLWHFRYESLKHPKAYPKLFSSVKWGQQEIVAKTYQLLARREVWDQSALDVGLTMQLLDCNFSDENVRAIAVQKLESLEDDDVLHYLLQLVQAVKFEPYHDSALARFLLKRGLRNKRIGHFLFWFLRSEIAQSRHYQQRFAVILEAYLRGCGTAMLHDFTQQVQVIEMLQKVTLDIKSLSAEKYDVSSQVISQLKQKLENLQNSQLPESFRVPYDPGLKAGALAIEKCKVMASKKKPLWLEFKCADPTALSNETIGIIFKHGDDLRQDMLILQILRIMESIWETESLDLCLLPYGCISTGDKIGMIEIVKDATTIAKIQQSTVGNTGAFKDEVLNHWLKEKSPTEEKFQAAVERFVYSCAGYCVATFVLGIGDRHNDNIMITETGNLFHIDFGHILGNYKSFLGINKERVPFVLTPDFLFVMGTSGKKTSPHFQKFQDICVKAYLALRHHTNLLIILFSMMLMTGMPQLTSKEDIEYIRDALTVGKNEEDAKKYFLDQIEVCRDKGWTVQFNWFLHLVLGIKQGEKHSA

pIC50, > 5.00:
Nc1nc2c(F)cc(-c3cncc(S(=O)(=O)NCC(F)(F)F)c3)cn2n1
Nc1nc2ccc(-c3cn[nH]c3)cn2n1
CC(C)CCNS(=O)(=O)c1cncc(-c2ccc3nc(N)nn3c2)c1
Cc1cccc(-c2ccc3nc(N)nn3c2)c1
Nc1nc2ccc(-c3cccc(S(=O)(=O)NCCO)c3)cn2n1
CN(C)CCNS(=O)(=O)c1cccc(-c2ccc3nc(N)nn3c2)c1
CCCNS(=O)(=O)c1cncc(-c2ccc3nc(N)nn3c2)c1
Cc1nc(C)c(CNS(=O)(=O)c2cncc(-c3ccc4nc(N)nn4c3)c2)o1
Nc1nc2ccc(-c3cncc(S(=O)(=O)N4CCOCC4)c3)cn2n1
Nc1nc2ccc(-c3cccc(F)c3)cn2n1
Nc1nc2ccc(-c3ccc(S(N)(=O)=O)cc3)cn2n1
Nc1nc2ccc(-c3ccc4c(c3)OCCO4)cn2n1
COc1ccccc1-c1ccc2nc(N)nn2c1
Nc1nc2ccc(-c3cccc(Cl)c3)cn2n1
CN(C(C)(C)C)S(=O)(=O)c1cncc(-c2ccc3nc(N)nn3c2)c1
Nc1nc2ccc(-c3cncc(S(=O)(=O)Nc4ccc(F)c(F)c4)c3)cn2n1
N#Cc1cccc(-c2ccc3nc(N)nn3c2)c1
COc1ccc(-c2cc(Cl)c3nc(N)nn3c2)cc1OC
Nc1nc2ccc(-c3cncc(S(=O)(=O)Nc4ccc(OC(F)F)cc4)c3)cn2n1
CC(C)NS(=O)(=O)c1cncc(-c2cc(F)c3nc(N)nn3c2)c1
Nc1nc2ccc(-c3cncc(S(=O)(=O)Nc4cccc(C(F)(F)F)c4)c3)cn2n1
Nc1nc2ccc(-c3cncc(S(=O)(=O)NCc4cccc(Cl)c4Cl)c3)cn2n1
Nc1nc2ccc(-c3cncc(S(=O)(=O)N4CCCCC4)c3)cn2n1
CC(C)(C)NS(=O)(=O)c1cncc(-c2cc(F)c3nc(N)nn3c2)c1
Nc1nc2c(F)cc(-c3cncc(C(F)(F)F)c3)cn2n1
COc1ccc(-c2cn3nc(N)nc3cc2C)cc1OC
COc1ccc(-c2ccc3nc(N)nn3c2)cc1OC(C)C
COc1ccccc1NS(=O)(=O)c1cncc(-c2ccc3nc(N)nn3c2)c1
Nc1nc2ccc(-c3cccc(S(=O)(=O)NCCCCC(=O)O)c3)cn2n1
CN(c1cccc(C(F)(F)F)c1)S(=O)(=O)c1cncc(-c2ccc3nc(N)nn3c2)c1
CCCNS(=O)(=O)c1cncc(-c2cc(F)c3nc(N)nn3c2)c1
Nc1nc2ccc(-c3cncc(S(=O)(=O)N4CCC4)c3)cn2n1
Nc1nc2ccc(-c3cncc(NS(=O)(=O)c4cc(C(F)(F)F)cc(C(F)(F)F)c4)c3)cn2n1
Nc1nc2ccc(-c3cccc(S(=O)(=O)NCCCC(=O)O)c3)cn2n1
CS(=O)(=O)c1cncc(-c2ccc3nc(N)nn3c2)c1
Nc1nc2ccc(-c3cncc(S(N)(=O)=O)c3)cn2n1
CCC(CC)CNS(=O)(=O)c1cncc(-c2ccc3nc(N)nn3c2)c1
CCNS(=O)(=O)c1cncc(-c2ccc3nc(N)nn3c2)c1
Nc1nc2ccc(-c3cncc(S(=O)(=O)NCC(F)(F)F)c3)cn2n1
CS(=O)(=O)c1cccc(-c2ccc3nc(N)nn3c2)c1
Nc1nc2ccc(-c3cncc(OCc4ccccc4)c3)cn2n1
Nc1nc2ccc(-c3cccs3)cn2n1
NC(=O)c1ccc(-c2ccc3nc(N)nn3c2)cc1
Nc1nc2ccc(-c3cncc(S(=O)(=O)Nc4ccccc4C(F)(F)F)c3)cn2n1
CC(C)(C)NS(=O)(=O)c1cccc(-c2ccc3nc(N)nn3c2)c1
CNS(=O)(=O)c1cncc(-c2ccc3nc(N)nn3c2)c1
Nc1nc2ccc(-c3cncc(S(=O)(=O)Nc4cc(C(F)(F)F)cc(C(F)(F)F)c4)c3)cn2n1
CCN(C)S(=O)(=O)c1cncc(-c2cc(F)c3nc(N)nn3c2)c1
CS(=O)(=O)c1cccc(-c2cc(F)c3nc(N)nn3c2)c1
Nc1nc2ccc(-c3cncc(S(=O)(=O)N4CCCCCC4)c3)cn2n1
Nc1nc2ccc(-c3cncc(S(=O)(=O)NCc4ccccc4)c3)cn2n1
Nc1nc2ccc(-c3ccc(F)c(F)c3)cn2n1
